Results as given in PMC7504435, “Combined Protein- and Ligand-Observed NMR Workflow to Screen Fragment Cocktails against Multiple Proteins: A Case Study Using Bromodomains” (Molecules, 2020).
Several values for one entry are separate records, joined by “and”; a condition that tells them apart may be missing. Equal values may be shown once.

Experiments:
Type in all cases: binding
PfGCN5 bromodomain [1] = molecular target: T1, PfGCN5 bromodomain (Plasmodium falciparum, UniProt Q8IB67); test: biochemical
T1 sequence (Q8IB67 entry or part of it): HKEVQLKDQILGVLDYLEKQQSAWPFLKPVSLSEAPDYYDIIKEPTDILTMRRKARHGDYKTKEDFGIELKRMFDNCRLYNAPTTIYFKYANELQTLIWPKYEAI
Procedure: The screening workflow consists of two dependent steps: 1) a PrOF NMR screen of the 5FW-labeled proteins and a cocktail of 4–5 fragments in a single NMR tube; 2) a ^1H CPMG NMR binding assay to deconvolute the hit mixtures for each protein (Figure 1). In the first step, a dual-protein PrOF NMR spectrum was obtained in which 5FW-PfGCN5, 5FW-BPTF (~ 50 µM each) and mixtures of fragments (400 µM individual fragment) were present in the same NMR tube. […] Chemical shift perturbations indicating a ligand binding event were based on a prior cutoff of Δδ ≥ 0.030 ppm as the definition for a hit mixture. This cutoff was based on a statistical analysis of chemical shift perturbations from a prior BRD4 D1 fragment screen and are described further in the experimental section and in Table S2.
PrOF NMR. PrOF NMR spectra were obtained on a Bruker Avance III HD 500 with the 5 mm Prodigy TCI inverse cryoprobe (^19F S:N 2000:1). […] The DMSO concentration for all experiments was kept constant at 1%. […] For the PrOF NMR screen, 5FW-BPTF and 5FW-PfGCN5 (35–40 µM in 50 mM phosphate, 100 mM NaCl, pH 7.4) were tested with mixtures of 4–5 fragments, where each individual fragment was 400 µM. […] A 10 Hz line broadening was applied. Titrations were fit to Equation (2), where p is the protein concentration and L is the ligand concentration. (2) Δδ=Δδmax × (Kd+P+L ) − (((Kd + P + L )^2) − 4PL)/2P
A PrOF NMR binding event is characterized as a change in chemical shift (Δδ) from the protein-only spectrum to the protein + fragment mixture spectrum. We used a prior cutoff of Δδ ≥ 0.030 ppm as the definition of a hit mixture, based on a statistical analysis of chemical shift perturbations from a prior BRD4 D1 fragment screen.

PfGCN5 bromodomain [2] = molecular target: T1, PfGCN5 bromodomain; test: 1H-15N HSQC NMR titration with PfGCN5
Description: To cross-validate our findings, ^1H-^15N HSQC NMR was used to further examine the binding mode of 9 to PfGCN5 in the presence and absence of known ligands. The ^1H-^15N HSQC spectrum of PfGCN5 is unassigned. For ease of spectral interpretation, all resonances that were distinctly visible were assigned as 1-64. Fragment 9, GSK4027, and the acetylated peptide H2A.Z II K7,13ac were titrated against PfGCN5. At the highest ligand concentration, resonances with Δδ > x^− + 0.60*s, where x^− is the mean and s is the standard deviation at the highest concentration, were defined as significant. The correction factor of 0.60 is to compensate for only 60% of the resonances being usable for analysis. Titration of 9 with PfGCN5 gave linear and non-linear dose-dependent chemical shift perturbations. Of the five resonances with non-linear movement, only one (10) was considered to have significant movement. […] This affinity with the non-fluorine-labeled protein is similar but higher than the affinity determined by PrOF NMR. […]
^1H-^15N SOFAST HSQC.^1H-^15N SOFAST HSQC spectra were obtained on a Bruker 600 MHz Avance NEO with a CryoProbe 5 mm TCI (^1H, ^13C, ^15N, ^2H) w/ Z-gradient using Bruker’s IBS_SOFAST.x method with 32 scans, 0.05 s acquisition time, and 0.2 s delay. […] Data were processed with nmrDraw, nmrPipe, and NFRAM Sparky. Δδ^1H-^15N was calculated using Equation (3). […]

BPTF bromodomain = BPTF bromodomain (Homo sapiens, UniProt Q12830); test: 1H CPMG NMR deconvolution of hit mixtures, BPTF; parameters: deconvolution of the hit mixtures using the non-fluorine-labeled bromodomains; made in house; host or cells: E. coli BL21(DE3); conditions: 10 µM protein, 100 µM ligand
Procedure: The second step is a ^1H CPMG NMR deconvolution of the hit mixtures using the non-fluorine-labeled bromodomains. ^1H CPMG NMR employs a T2 filter to take advantage of the difference in transverse relaxation time between protein and small molecules to filter out the bound-state ligand(s). Unlike the PrOF NMR assay, a single protein is assayed in each experiment. A binding event is characterized by a decrease in ligand resonance intensity from the ligand alone spectrum to the ligand + protein spectrum. A hit is defined as a decrease in resonance intensity ≥ 20%. The ^1H CPMG NMR assay can be tuned by changing the protein or ligand concentration, filter length (Figure 1), or hit criteria depending on how stringent the desired hit rate is. The number of ^1H CPMG NMR deconvolution experiments is directly informed from the first step. If a mixture from the first step was only a hit for one protein, a single ^1H CPMG NMR deconvolution experiment is needed. If a mixture from the first step was a hit for both proteins, two separate ^1H CPMG NMR deconvolutions experiments are needed to determine the fragments that bind to each protein.
^1H CPMG NMR. ^1H CPMG NMR screen data were acquired on Bruker Avance III HD 500 with the 5 mm Prodigy TCI cryoprobe inverse cryoprobe (^1H 2500:1 S/N). Competition ^1H CPMG NMR data were acquired on Bruker 700 MHz Avance with a CryoProbe 5 mm TXI (^1H S:N with H2O suppression (2mM sucrose) - 900:1) and excitation sculpting water suppression. Proteins were present at 10 µM in 50 mM phosphate, 100 mM NaCl, pH 7.4 in 100% D2O. In separate NMR tubes, a ^1H CPMG NMR pulse was applied to a 1) mixture of ligands (individual ligands present at 100 µM for the screen and 50 µM for competition experiments) and 2) ligands + protein. […] For the competition experiments, τ was increased to 4.0 ms.

With `Nc1ccc2c(c1)N(C(=O)C1CC1)CCC2` [Fragment 9] the “ligand efficiency (LE)” value (PfGCN5 bromodomain [1]; PfGCN5, from Kd = 16 µM) was 0.43, the Kd (PfGCN5 bromodomain [1]; PfGCN5 Kd, PrOF NMR titration, for 9 average of W1454 and W1379, NS = non-saturating) was 17 µM and 16 µM and the “Initial Mixture PfGCN5 PrOF NMR Δδ” value (PfGCN5 bromodomain [1]; hit mixture containing the fragment, 400 µM each fragment) was “++++ (++++ = Δδ > 0.2)”. The “selectivity, binds PfGCN5 over BPTF” value (PfGCN5 bromodomain [1]; ratio of Kd values) was 9 fold, the Kd (PfGCN5 bromodomain [2]) was 7.5 µM and the “BPTF CPMG % decrease” value (BPTF bromodomain) was 100%. The “1H CPMG NMR % Drop in Resonance Intensity BPTF” value (BPTF bromodomain; for 9 from competition experiments (footnote a)) was “++++ ^a (++++ = 80–99.9%)”.
